Measurements as given in patent publication US20210236512A1 (ZARODEX THERAPEUTICS LIMITED, priority 2018, published 2021).
“And” between values parts separate entries of the source, which are not always exact repeats. Identical values can stand only once. “Also recorded” adds a separate entry of the source. Like-named read-outs stand apart in the source and are kept apart here.

Experiments:
[1] = system: Vaccine specific-IgG (Haemophilus influenza B, Pneumococcus, Tetanus); conditions: human, in vivo
[2] = system: B cell subsets in bone marrow; assay: Wild type mouse study: bone marrow B cell immunophenotyping by flow cytometry
[3] = system: circulating B cell subsets; assay: Second observational study (interim analysis): circulating B cell subsets by FACS; format: in vivo, human
[4] = system: class switched memory B cells (CSMB), plasmablasts and other B cell subsets; conditions: for CSMB after clozapine stopped: one patient, after 24 months
[5] = Michel. L. et al., 2015; cited from earlier work
[6] = system: Specific antibody titres against Haemophilus influenzae, Tetanus and Pneumococcal capsular polysaccharide; design: species or system human; conditions: in vivo
[7] = First observational study: infection questionnaire, antibiotic courses and hospital admission rates; format: in vivo, human

## CN1CCN(C2=Nc3cc(Cl)ccc3Nc3ccccc32)CC1 [Clozapine, clozapine]
[1]
  Failed to develop an IgG response above >=50 mg/L following Pneumovax II: 73%
  Failing to exceed the >=0.1 IU/mL post-vaccination Tetanus-IgG level: 1/12
  Failing to mount a Haemophilus-IgG response >=1 mcg/ml post-Menitorix (HiB/MenC) vaccination: 42%
  IgG to Haemophilus influenza B (HiB) <1 mcg/ml at initial assessment, patients: 75%
  Pneumococcus-IgG <50 mg/L at initial assessment, patients: 94%
  Response to haemophilus and/or pneumococcal vaccination, individual referred patient: Failure to responds to; also recorded: Durable pneumococcal; also recorded: Non-durable
  Responses to vaccination impaired, patients / patients assessed: 10/11
  Tetanus-IgG <0.1 IU/mL at initial assessment, patients: 38%
[2]; 10 mg/kg IP, 21 days
  Pro-B cell fraction in bone marrow: without any change
  Proportion of pre-pro B cells in bone marrow: significant increase
[2]; 5 and 10 mg/kg IP, 21 days, significant
  Reduction in the percentage of long-lived plasma cells in the bone marrow compared to control: ~30%
[2]; any dose of clozapine (2.5, 5, 10 mg/kg IP, 21 days)
  B cells in the bone marrow (BM), overall: No overall reduction
[2]; clozapine IP, 21 days
  Percentage of immature B cells in bone marrow: reduction
[2]; dose-dependent, significant vs control even at 2.5 mg/kg
  Pre-B cells in bone marrow: reduction
[2]; reaching significance for the 5 mg/kg dose
  Percentage of pre-B cells that were proliferating: diminished
[3]; FIG. 8A-B
  Overall CD19+ B cell numbers vs control: not significantly different
[3]; FIG. 9A-C
  Naive (CD19+ CD27-) B cells as a proportion of total CD19+ B cells: Small increase
[3]; FIG. 10A-C, 12A-C
  Overall memory B cell pool or IgMhi IgDlo memory B cell subpopulation: without perturbation
[3]; FIG. 13A-C, 14A-C
  Circulating levels of transitional B cells or marginal zone B cells: No significant difference
[3]; P=0.06 vs control, FIG. 11A-C
  Class-switched memory B cells (CD27+ IgM- IgD- as % B): Strong trends to a specific reduction
[3]; P=0.07 vs control clozapine naive, FIG. 15A-C
  Levels of plasmablasts: Strong trends to reduction
[4]; FIG. 3B
  Marginal zone B cell numbers vs healthy control: no significant difference
  Total B cell numbers vs CVID and healthy controls: similar
[4]; class switched memory B cells as % of total CD19+ cells, one line per patient of Table 3, listed as clozapine
  CSMB (reference range 6.5-29.1%), individual referred patient: 1.58%
[4]; human, in vivo
  Overall lymphopenia or B cell lymphopenia: no severe overall lymphopenia or B cell lymphopenia
[4]
  CSMB after clozapine stopped: CSM Brose to 2.77%
[4]; listed as clozapine
  CSMB after clozapine stopped: 2.77%
[4]; referred clozapine-treated patients, p<0.0001 vs healthy controls
  Mean CSMB (reference range 6.5-29.1%): 1.87%
[5]
  CNS penetration: high levels of CNS penetration
[6]
  IgG-Haemophilus B <1.0 mcg/ml, percentage of patients: 51% and 51.2% and 51.1% and 49.4% and 50.9%
  IgG-Pneumococcus <35 mg/L, percentage of patients: 39.0% and 38.3% and 37.9% and 45.6%
  IgG-Pneumococcus <50 mg/L, percentage of patients: 52.1% and 50.6% and 54.4%
  IgG-Tetanus <0.1 IU/ml, percentage of patients: 10.6% and 11.5% and 12.3%
  IgM-Pneumococcus, mean: 58.5 U/L and 59.8 U/L and 60.4 U/L and 61.6 U/L
  Pneumococcal IgM level: 58.5 U/ml
[7]; clozapine group (vs 0.06 in controls)
  Admitted to hospital with infection: 0.12 per patient year
[7]; clozapine-treated patients
  Admission frequency in 12-month period, all cause: patients admitted: 14 patients
  Admission frequency in 12-month period, infection-related: admissions: 15
  Admission frequency in 12-month period, infection-related: patients admitted: 10 patients
  Antibiotic courses per year: 1-5 courses, percentage of patients: 33.0%
  Antibiotic courses per year: >5 courses, percentage of patients: 5.3%
  Antibiotic courses per year: nil courses, percentage of patients: 61.7%
[7]; clozapine-treated patients, listed as clozapine
  Antibiotic courses per year: >5 courses, percentage of patients: 5.3%
